Measured values as given in patent US12357645B2, “Drug combination for treatment of gastric cancer” (priority 2023, dated 2025).

System: patients with advanced gastric cancer (AGC)
Test: Phase 1 study of minnelide prodrug alone or with paclitaxel in advanced gastric cancer (NCT 05566834): safety, DLT, MTD, adverse events

CC(C)[C@]12O[C@H]1[C@@H]1O[C@]13[C@]1(O[C@H]1C[C@H]1C4=C(CC[C@@]13C)C(=O)OC4)[C@@H]2OCOP(=O)([O-])[O-].[Na+].[Na+] [minnelide prodrug, disodium; [(1S,2S,4S,5S,7S,8R,9R,11S, 13S)-1-methyl-17-oxo-7-propan-2-yl-3,6,10,16-tetraoxaheptacyclo [11.7.0.0^2,4.0^2,9.0^5,7.0^9,11.0^14,18]icos-14 (18)-en-8-yl]oxymethyl phosphate]
Minnelide-related AE Neutropenia, Any (Total Regimens A-C, n = 36): 11 (30.5) n (%) | Minnelide-related AE Neutropenia, ≥Gr 3 (Total Regimens A-C, n = 36): 7 (19.4) n (%) | Minnelide-related AE Overall, Any (Total Regimens A-C, n = 36): 27 (75.0) n (%) | Minnelide-related AE Overall, ≥Gr 3 (Total Regimens A-C, n = 36): 10 (27.8) n (%) | Minnelide-related AE Pruritus, Any (Total Regimens A-C, n = 36): 1 (2.8)/— n (%) | Minnelide-related AE Vomiting, Any (Total Regimens A-C, n = 36): 3 (8.3)/— n (%) | TRAE Abdominal pain, Any (Total Regimens A-C, n = 36): 16 (44.4) n (%) | TRAE Abdominal pain, ≥Gr 3 (Total Regimens A-C, n = 36): 4 (11.1) n (%) | TRAE Alopecia, Any (Total Regimens A-C, n = 36): 2 (5.6)/— n (%) | TRAE Anemia, Any (Total Regimens A-C, n = 36): 5 (13.9) n (%) | TRAE Anemia, ≥Gr 3 (Total Regimens A-C, n = 36): 3 (8.3) n (%) | TRAE Annualar scaly plaques, Any (Total Regimens A-C, n = 36): 1 (2.8)/— n (%) | TRAE Anorexia, Any (Total Regimens A-C, n = 36): 18 (50.0)/— n (%) | TRAE Azotemia, Any (Total Regimens A-C, n = 36): 2 (5.6)/— n (%) | TRAE Cancer pain, Any (Total Regimens A-C, n = 36): 3 (8.3) n (%) | TRAE Cancer pain, ≥Gr 3 (Total Regimens A-C, n = 36): 1 (2.8) n (%) | TRAE Cancer progression, Any (Total Regimens A-C, n = 36): 4 (11.1)/4 (11.1) n (%) | TRAE Cancer progression, ≥Gr 3 (Total Regimens A-C, n = 36): 4 (11.1)/4 (11.1) n (%) | TRAE Constipation, Any (Total Regimens A-C, n = 36): 3 (8.3)/— n (%) | TRAE Decreased vision, Any (Total Regimens A-C, n = 36): 1 (2.8)/— n (%) | TRAE Depression, Any (Total Regimens A-C, n = 36): 1 (2.8)/— n (%) | TRAE Dyspepsia, Any (Total Regimens A-C, n = 36): 2 (5.6)/— n (%) | TRAE Dysuria, Any (Total Regimens A-C, n = 36): 1 (2.8)/— n (%) | TRAE Edema, Any (Total Regimens A-C, n = 36): 1 (2.8)/— n (%) | TRAE Fatigue, Any (Total Regimens A-C, n = 36): 7 (19.4)/— n (%) | TRAE Gastric stenosis, Any (Total Regimens A-C, n = 36): 1 (2.8)/1 (2.8) n (%) | TRAE Gastric stenosis, ≥Gr 3 (Total Regimens A-C, n = 36): 1 (2.8)/1 (2.8) n (%) | TRAE General weakness, Any (Total Regimens A-C, n = 36): 2 (5.6)/— n (%) | TRAE Headache, Any (Total Regimens A-C, n = 36): 1 (2.8)/— n (%) | TRAE Hypercalcemia, Any (Total Regimens A-C, n = 36): 1 (2.8)/1 (2.8) n (%) | TRAE Hypercalcemia, ≥Gr 3 (Total Regimens A-C, n = 36): 1 (2.8)/1 (2.8) n (%) | TRAE Hypophosphatemi, Any (Total Regimens A-C, n = 36): 1 (2.8)/1 (2.8) n (%) | TRAE Hypophosphatemi, ≥Gr 3 (Total Regimens A-C, n = 36): 1 (2.8)/1 (2.8) n (%) | TRAE Jaundice, Any (Total Regimens A-C, n = 36): 1 (2.8)/1 (2.8) n (%) | TRAE Jaundice, ≥Gr 3 (Total Regimens A-C, n = 36): 1 (2.8)/1 (2.8) n (%) | TRAE Mucositis, Any (Total Regimens A-C, n = 36): 1 (2.8)/— n (%) | TRAE Nausea, Any (Total Regimens A-C, n = 36): 12 (33.3) n (%) | TRAE Nausea, ≥Gr 3 (Total Regimens A-C, n = 36): 2(5.6) n (%) | TRAE Neutropenia, Any (Total Regimens A-C, n = 36): 11 (30.6) n (%) | TRAE Neutropenia, ≥Gr 3 (Total Regimens A-C, n = 36): 7 (19.4) n (%) | TRAE Overall, Any (Total Regimens A-C, n = 36): 34 (94.4) n (%) | TRAE Overall, ≥Gr 3 (Total Regimens A-C, n = 36): 16 (44.4) n (%) | TRAE Pruritus, Any (Total Regimens A-C, n = 36): 1 (2.8)/— n (%) | TRAE Rash, Any (Total Regimens A-C, n = 36): 1 (2.8)/— n (%) | TRAE Sore throat, Any (Total Regimens A-C, n = 36): 1 (2.8)/— n (%) | TRAE Tachycardia, Any (Total Regimens A-C, n = 36): 2 (5.6)/— n (%) | TRAE Tuberculosis, Any (Total Regimens A-C, n = 36): 1 (2.8)/— n (%) | TRAE Urinary tract infection, Any (Total Regimens A-C, n = 36): 2 (5.6)/— n (%) | TRAE Vomiting, Any (Total Regimens A-C, n = 36): 5 (13.9) n (%) | TRAE Vomiting, ≥Gr 3 (Total Regimens A-C, n = 36): 1 (2.8) n (%) | TRAE Weight loss, Any (Total Regimens A-C, n = 36): 1 (2.8)/— n (%) | TRAE neutropenia (all regimens, 11/36): 30.6% | TRAE nausea (all regimens, 12/36): 33.3% | TRAE abdominal pain (all regimens, 16/36): 44.4% | TRAEs above Grade 3, share of patients (all regimens, 16 patients of 36): 44.4% | TRAE anorexia (all regimens, 18/36): 50% | Grade 5 AEs caused by gastric cancer progression, number (all regimens, 36 patients): four and Four | Grade 3 or higher AE with minnelide prodrug: abdominal pain (all regimens, n = 36): 11.1% | Grade 3 or higher AE with minnelide prodrug: nausea (all regimens, n = 36): 5.6% | Grade 3 or higher AE with minnelide prodrug: neutropenia (all regimens, n = 36): 19.4% | Grade 3 or higher AEs with minnelide prodrug, overall (all regimens, n = 36): 27.8% | TRAE above Grade 3: abdominal pain (all regimens, n = 36): 11.1% | TRAE above Grade 3: neutropenia (all regimens, n = 36): 19.4% | drop in blood counts: resolution after withholding the drug (in vivo): 4 to 8 days | Grade ≥3 abdominal pain (monotherapy group): 18.2% | Grade ≥3 nausea (monotherapy group): 18.2% | Grade ≥3 neutropenia (monotherapy group): 9.1% | Grade ≥3 vomiting (monotherapy group): 9.1% | maximum tolerated dose (MTD) (monotherapy, PO once daily for 21 days every 4 weeks): 1.25 mg | drop in blood counts: onset after start of drug (usually seen): 5 to 7 days
